Experimental data taken from PubChem BioAssay AID330 (DTP/NCI, 2004).
Several values for one entry are separate records, joined by “and”; a condition that tells them apart may be missing. Equal values may be shown once. Inconclusive results and toxic doses are left out. Rule for the calls: active = survival T/C of 150% or more; inactive = T/C below 125% in these data.

Tested on: P388 leukemia ip, CD2F1 mice, survival T/C
Assay: NCI In Vivo Anticancer Drug Screen. Data for tumor model P388 Leukemia (intraperitoneal) in CD2F1 (CDF1) mice
Settings: endpoint: median survival time, higher = longer survival
Method in brief: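 Mice carrying the transplanted tumor received test compound or vehicle. Survival was recorded in each group, and the value is the treated-group measurement divided by that of the vehicle-treated control group.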

[1] = dose: 60.0 mg/kg/injection, schedule: Q01DX005 (ip), vehicle: Klucel (hydroxypropylcellulose) (HPC)
[2] = dose: 120.0 mg/kg/injection, schedule: Q01DX005 (ip), vehicle: Klucel (hydroxypropylcellulose) (HPC)
[3] = dose: 240.0 mg/kg/injection, schedule: Q01DX005 (ip), vehicle: Klucel (hydroxypropylcellulose) (HPC)
[4] = dose: 50.0 mg/kg/injection, schedule: Q01DX005 (ip), vehicle: Klucel (hydroxypropylcellulose) (HPC)
[5] = dose: 100.0 mg/kg/injection, schedule: Q01DX005 (ip), vehicle: Klucel (hydroxypropylcellulose) (HPC)
[6] = dose: 60.0 mg/kg/injection, schedule: Q01DX005 (ip), vehicle: saline
[7] = dose: 120.0 mg/kg/injection, schedule: Q01DX005 (ip), vehicle: saline
[8] = dose: 240.0 mg/kg/injection, schedule: Q01DX005 (ip), vehicle: saline
[9] = dose: 60.0 mg/kg/injection, schedule: Q01DX005 (ip), vehicle: saline with Tween-80
[10] = dose: 120.0 mg/kg/injection, schedule: Q01DX005 (ip), vehicle: saline with Tween-80
[11] = dose: 240.0 mg/kg/injection, schedule: Q01DX005 (ip), vehicle: saline with Tween-80
[12] = dose: 50.0 mg/kg/injection, schedule: Q01DX009 (ip), vehicle: saline
[13] = dose: 100.0 mg/kg/injection, schedule: Q01DX009 (ip), vehicle: saline
[14] = dose: 6.25 mg/kg/injection, schedule: Q01DX009 (ip), vehicle: saline
[15] = dose: 12.5 mg/kg/injection, schedule: Q01DX009 (ip), vehicle: saline
[16] = dose: 100.0 mg/kg/injection, schedule: Q01DX001 (ip), vehicle: saline with Tween-80
[17] = dose: 200.0 mg/kg/injection, schedule: Q01DX001 (ip), vehicle: saline with Tween-80
[18] = dose: 200.0 mg/kg/injection, schedule: Q01DX005 (ip), vehicle: Klucel (hydroxypropylcellulose) (HPC)
[19] = dose: 100.0 mg/kg/injection, schedule: Q04DX003 (ip), vehicle: saline with Tween-80
[20] = dose: 200.0 mg/kg/injection, schedule: Q04DX003 (ip), vehicle: saline with Tween-80
[21] = dose: 400.0 mg/kg/injection, schedule: Q01DX001 (ip), vehicle: saline with Tween-80
[22] = dose: 50.0 mg/kg/injection, schedule: Q01DX001 (ip), vehicle: saline with Tween-80
[23] = dose: 12.5 mg/kg/injection, schedule: Q01DX005 (ip), vehicle: saline with Tween-80
[24] = dose: 25.0 mg/kg/injection, schedule: Q01DX005 (ip), vehicle: saline with Tween-80
[25] = dose: 50.0 mg/kg/injection, schedule: Q01DX005 (ip), vehicle: saline with Tween-80
[26] = dose: 50.0 mg/kg/injection, schedule: Q01DX009 (ip), vehicle: saline with Tween-80
[27] = dose: 100.0 mg/kg/injection, schedule: Q01DX009 (ip), vehicle: saline with Tween-80
[28] = dose: 200.0 mg/kg/injection, schedule: Q01DX009 (ip), vehicle: saline with Tween-80

Measured: T/C

CCCCCCC(=O)CC1(C(=O)OC)NC(=S)NC(=O)C1C#N (centres undefined)
inactive: [1] 100 % of control | [2] 103 % of control | [3] 97 % of control

O=C(NC1COB(c2ccc(Br)cc2)OC1c1ccc([N+](=O)[O-])cc1)C(Cl)Cl (centres undefined)
inactive: [1] 102 % of control | [2] 102 % of control | [3] 103 % of control

Nc1c(-c2nc3ccc(C4=NCCN4)cc3[nH]2)[nH]c2cc(-c3nc4ccc(C5=NCCN5)cc4[nH]3)ccc12
inactive: [4] 90 % of control | [5] 90 % of control

N=c1c2ccccc2nc2n1CCCCC2
inactive: dose: 25.0 mg/kg/injection, schedule: Q04DX003 (ip), vehicle: saline 103 % of control | dose: 50.0 mg/kg/injection, schedule: Q04DX003 (ip), vehicle: saline 95 % of control

C1Cc2[nH]nc(-c3n[nH]c4c3CCC4)c2C1
inactive: [6] 97 % of control | [7] 97 % of control | [8] 97 % of control

Nc1nc2c(c(-c3nc(N)nc4c3CCC4)n1)CCC2
inactive: [6] 98 % of control | [7] 106 % of control | [8] 97 % of control

O=[N+]([O-])c1cn(CCCNc2c3ccccc3nc3ccccc23)cn1
inactive: [9] 95 % of control | [10] 107 % of control | [11] 112 % of control

COc1ccc(CCN)c(OC)c1OC
inactive: [12] 105 % of control and 107 % of control | [13] 104 % of control and 110 % of control

CC(=O)N(O)CC(=O)OCc1ccccc1
inactive: dose: 12.5 mg/kg/injection, schedule: Q01DX009 (ip), vehicle: other 96 % of control | dose: 25.0 mg/kg/injection, schedule: Q01DX009 (ip), vehicle: other 104 % of control | dose: 50.0 mg/kg/injection, schedule: Q01DX009 (ip), vehicle: other 102 % of control | dose: 100.0 mg/kg/injection, schedule: Q01DX009 (ip), vehicle: other 111 % of control | dose: 200.0 mg/kg/injection, schedule: Q01DX009 (ip), vehicle: other 100 % of control

CCCCCCCCCCCCCC[N+]1(CC)CCOCC1
inactive: dose: 3.12 mg/kg/injection, schedule: Q01DX009 (ip), vehicle: saline 119 % of control | [14] 115 % of control | [15] 123 % of control

CC1=NNB(O)c2c1sc(Br)c2Br
inactive: [16] 100 % of control | [17] 95 % of control

COc1cc(NCCCCCCNC(C)C)c2nccc(C)c2c1
inactive: dose: 3.13 mg/kg/injection, schedule: Q01DX009 (ip), vehicle: saline 91 % of control | [14] 99 % of control | [15] 99 % of control

COC(=O)CCCOCCCC(=O)OC
inactive: [12] 95 % of control | [13] 99 % of control

COc1ccc2[nH]cc(CC(NC(C)=O)C(=O)O)c2c1 (centres undefined)
inactive: [4] 98 % of control | [5] 104 % of control | [18] 101 % of control

O=C1c2cccc(Oc3ccccc3)c2C(=O)c2cccc(Oc3ccccc3)c21
inactive: [19] 95 % of control | [20] 86 % of control | dose: 400.0 mg/kg/injection, schedule: Q04DX003 (ip), vehicle: saline with Tween-80 90 % of control

[N-]=[N+]=NC1(c2ccccc2)C(=O)c2ccccc2C1=O
inactive: [19] 94 % of control | [20] 105 % of control

COc1ccc(SS(=O)c2ccc(C)cc2)cc1 (centres undefined)
inactive: dose: 100.0 mg/kg/injection, schedule: Q01DX001 (ip), vehicle: other 105 % of control | dose: 200.0 mg/kg/injection, schedule: Q01DX001 (ip), vehicle: other 106 % of control | dose: 400.0 mg/kg/injection, schedule: Q01DX001 (ip), vehicle: other 111 % of control

COC1OCC(N=[N+]=[N-])C(O)C1O (centres undefined)
inactive: dose: 25.0 mg/kg/injection, schedule: Q01DX005 (ip), vehicle: saline 98 % of control | dose: 50.0 mg/kg/injection, schedule: Q01DX005 (ip), vehicle: saline 102 % of control | dose: 100.0 mg/kg/injection, schedule: Q01DX005 (ip), vehicle: saline 100 % of control | dose: 200.0 mg/kg/injection, schedule: Q01DX005 (ip), vehicle: saline 102 % of control

COc1cc2ccnc(-c3nccc4cc(OC)c(OC)cc34)c2cc1OC
inactive: [16] 97 % of control | [17] 92 % of control | [21] 97 % of control

C/C(=C\c1cc(Cl)ccc1OCC(=O)O)[N+](=O)[O-]
inactive: [22] 108 % of control and 116 % of control | [16] 121 % of control and 96 % of control | [17] 121 % of control | [21] 115 % of control

CCCCCC(CN(C)C)C(=O)/C=C/c1ccc(F)cc1 (centres undefined)
inactive: [23] 98 % of control | [24] 104 % of control | [25] 107 % of control and 118 % of control | dose: 100.0 mg/kg/injection, schedule: Q01DX005 (ip), vehicle: saline with Tween-80 103 % of control

CN(C)CCCN1c2ccccc2Sc2ccc(C(F)(F)F)cc21
inactive: dose: 12.5 mg/kg/injection, schedule: Q01DX009 (ip), vehicle: saline with Tween-80 123 % of control

CSc1nc2n(C)cc(C)cc-2c(=O)n1
inactive: dose: 25.0 mg/kg/injection, schedule: Q01DX001 (ip), vehicle: saline with Tween-80 97 % of control | [22] 97 % of control | [16] 99 % of control

Cc1ccc(Nc2nnc(-c3ccc4c(c3)OCO4)o2)c(C)c1
inactive: [4] 97 % of control | [5] 97 % of control | [18] 100 % of control

O=C(NCCCl)Oc1ccc(F)cc1
inactive: [4] 100 % of control | [5] 100 % of control | [18] 110 % of control

O=[N+]([O-])c1ccc(-c2nc3ncncc3[nH]2)cc1
inactive: dose: 6.25 mg/kg/injection, schedule: Q01DX009 (ip), vehicle: Klucel (hydroxypropylcellulose) (HPC) 107 % of control | dose: 12.5 mg/kg/injection, schedule: Q01DX009 (ip), vehicle: Klucel (hydroxypropylcellulose) (HPC) 99 % of control

O=c1n(-c2ccccc2)c(=O)n2n1C1CC3c4ccccc4C1C32 (centres undefined)
inactive: dose: 25.0 mg/kg/injection, schedule: Q01DX005 (ip), vehicle: Klucel (hydroxypropylcellulose) (HPC) 101 % of control | [4] 97 % of control | [5] 94 % of control

O=C(O)C1=C(/C=C(/c2ccccc2)c2ccc(Cl)cc2)OCCC1
inactive: [26] 90 % of control | [27] 94 % of control | [28] 105 % of control

O=C(NC(=NC(=Nc1ccccc1)c1ccccc1)c1ccccc1)c1ccccc1
inactive: [26] 99 % of control | [27] 102 % of control | [28] 99 % of control

CCOC(=O)c1csc(Br)n1
inactive: [9] 104 % of control | [10] 100 % of control | [11] 100 % of control

NC(C=O)C(O)C(O)C(O)CO (centres undefined)
inactive: [27] 109 % of control | dose: 100.0 mg/kg/injection, schedule: Q04DX003 (ip), vehicle: saline sonified 100 % of control | [28] 95 % of control | dose: 200.0 mg/kg/injection, schedule: Q04DX003 (ip), vehicle: saline sonified 100 % of control | dose: 400.0 mg/kg/injection, schedule: Q01DX009 (ip), vehicle: saline with Tween-80 95 % of control | dose: 400.0 mg/kg/injection, schedule: Q04DX003 (ip), vehicle: saline sonified 90 % of control

Nc1nc(C(Br)Br)c([N+](=O)[O-])c(=O)[nH]1
inactive: dose: 12.0 mg/kg/injection, schedule: Q01DX005 (ip), vehicle: saline with Tween-80 97 % of control | [23] 100 % of control | [24] 104 % of control and 94 % of control | [25] 112 % of control and 97 % of control

COC(=O)N1CC2C=CC1C(Cl)(C#N)C2 (centres undefined)
inactive: dose: 50.0 mg/kg/injection, schedule: Q01DX009 (ip), vehicle: Klucel (hydroxypropylcellulose) (HPC) 101 % of control | dose: 100.0 mg/kg/injection, schedule: Q01DX009 (ip), vehicle: Klucel (hydroxypropylcellulose) (HPC) 90 % of control | dose: 200.0 mg/kg/injection, schedule: Q01DX009 (ip), vehicle: Klucel (hydroxypropylcellulose) (HPC) 106 % of control
